Where no end group is shown, it is not given here.
Legend:
[1] = biological target: purified HLA DRB1 *0101 (Homo sapiens, UniProt P01903+P01911, A100R/D57E/F55L/F60I/F76Y/I96L/L162R/M171V/P40L/Q125E/R42F/V115G/Y59C); assay: IC50nM to purified HLA | DRB1 *0101
Protocol: (§1) Table printed on a drawing sheet, FIG. 1
(§2) Head of the field: IC50nM to purified HLA | DRB1 *0101
(§3) First copying reader's note: The comma is the decimal sign and the point a thousands separator (e.g. 21.831); some values are printed bold or italic and some SEQ ID NOs underlined, with no legend on the sheet.
(§4) Where the first naming reader finds the target: head: IC50nM to purified HLA | DRB1 *0101

[2] = biological target: purified HLA DRB1 *0701 (Homo sapiens, UniProt P01903+P01911, A100R/A102G/A103Q/D57E/D86V/E43K/F76Y/K127E/L162R/M171V/P40G/Q125H/Q99D/R33Q/R42Y/R54Q/S133A/S66F/T210M/V115G/Y107V/Y59L/Y89S); assay: IC50nM to purified HLA | DRB1 *0701
Protocol: as §1
Head of the field: IC50nM to purified HLA | DRB1 *0701
as §3
Where the first naming reader finds the target: head: IC50nM to purified HLA | DRB1 *0701

[3] = biological target: purified HLA DRB1 *0802 (Homo sapiens, UniProt P01903+P01911, A100R/A103L/A169T/F76Y/H45Y/I96F/K41T/L162R/M171V/P40S/Q125H/Q178H/Q39Y/Q99D/R218S/R42G/S66Y/V115G/W38E); assay: IC50nM to purified HLA | DRB1 *0802
Protocol: as §1
(§5) Head of the field: IC50nM to purified HLA | DRB1 *0802
as §3
(§6) Where the first naming reader finds the target: head: IC50nM to purified HLA | DRB1 *0802

[4] = biological target: purified HLA DRB1 *1302 (Homo sapiens, UniProt P01903+P01911, A100E/A169T/K41T/L162R/M171V/P40S/Q125H/Q178H/Q39Y/Q99D/R42S/S66N/T262R/V115G/W38E/Y61H); assay: IC50nM to purified HLA | DRB1 *1302
purified HLA DRB1 *1302, sequence (P01903 26-254 limits assumed, other chains not shown): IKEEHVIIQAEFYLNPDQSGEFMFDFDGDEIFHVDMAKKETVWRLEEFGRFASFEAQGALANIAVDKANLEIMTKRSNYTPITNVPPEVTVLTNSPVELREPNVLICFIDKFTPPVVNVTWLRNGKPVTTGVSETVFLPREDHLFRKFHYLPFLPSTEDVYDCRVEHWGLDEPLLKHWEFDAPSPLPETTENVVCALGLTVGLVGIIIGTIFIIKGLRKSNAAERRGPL
Protocol: as §1
Head of the field: IC50nM to purified HLA | DRB1 *1302
as §3
Where the first naming reader finds the target: head: IC50nM to purified HLA | DRB1 *1302

[5] = biological target: purified HLA DRB4 *0101 (Homo sapiens, UniProt P01903+P13762, G164S); assay: IC50nM to purified HLA | DRB4 *0101
purified HLA DRB4 *0101, sequence (P01903 26-254 limits assumed): as the sequence (P01903 26-254 limits assumed, other chains not shown) above
purified HLA DRB4 *0101, sequence (P13762 whole entry G164S): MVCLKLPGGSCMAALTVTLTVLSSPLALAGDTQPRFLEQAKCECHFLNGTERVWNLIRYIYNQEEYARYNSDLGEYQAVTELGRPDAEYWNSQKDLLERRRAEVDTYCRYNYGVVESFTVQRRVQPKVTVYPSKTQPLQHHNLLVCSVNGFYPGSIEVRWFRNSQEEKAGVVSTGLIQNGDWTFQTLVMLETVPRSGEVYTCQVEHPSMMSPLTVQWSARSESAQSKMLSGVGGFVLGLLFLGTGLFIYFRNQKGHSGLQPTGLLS
Protocol: as §1
(§7) Head of the field: IC50nM to purified HLA | DRB4 *0101
as §3
(§8) Where the first naming reader finds the target: head: IC50nM to purified HLA | DRB4 *0101

[6] = biological target: HLA DRB1 *0101 (Homo sapiens, UniProt P01903+P01911, A100R/D57E/F55L/F60I/F76Y/I96L/L162R/M171V/P40L/Q125E/R42F/V115G/Y59C); assay: IC50nM to purified HLA | DRB1 *0101
Protocol: (§9) Table printed on a drawing sheet, FIG. 1 (contd.)
as §2
(§10) First copying reader's note: Continued from the preceding sheet of FIG. 1; decimal commas are used, the analog names give the substituted residues and positions in PADRE, and some values are printed in italics or bold and some SEQ ID NOs bold and underlined without a legend on this sheet.
as §4

[7] = biological target: HLA DRB1 *0404 (Homo sapiens, UniProt P01903+P01911, A100R/A169T/F76Y/I96L/K127E/L162R/M171V/N62H/P40V/Q125Y/R42H/S133A/S149N/S66Y/V209L/W38E); assay: IC50nM to purified HLA | DRB1 *0404
Protocol: as §9
(§11) Head of the field: IC50nM to purified HLA | DRB1 *0404
as §10
(§12) Where the first naming reader finds the target: head: IC50nM to purified HLA | DRB1 *0404

[8] = biological target: HLA DRB1 *0802 (Homo sapiens, UniProt P01903+P01911, A100R/A103L/A169T/F76Y/H45Y/I96F/K41T/L162R/M171V/P40S/Q125H/Q178H/Q39Y/Q99D/R218S/R42G/S66Y/V115G/W38E); assay: IC50nM to purified HLA | DRB1 *0802
Protocol: as §9, §5, §10, §6

[9] = biological target: HLA DRB1 *0901 (Homo sapiens, UniProt P01903+P01911, A100R/A103E/D57H/D86V/F55Y/F60I/F76Y/I96F/K127E/L162R/M171V/P40D/Q125H/Q99R/R33Q/R42F/S133A/S66N/T210M/V115G/W38K/Y107V/Y59G/Y89S); assay: IC50nM to purified HLA | DRB1 *0901
Protocol: as §9
Head of the field: IC50nM to purified HLA | DRB1 *0901
as §10
Where the first naming reader finds the target: head: IC50nM to purified HLA | DRB1 *0901

[10] = biological target: HLA DRB1 *1101 (Homo sapiens, UniProt P01903+P01911, A100R/A169T/A87E/I96F/K41T/L162R/M171V/P40S/Q125H/Q178H/Q39Y/Q99D/R42S/S66Y/T262R/V115G/W38E); assay: IC50nM to purified HLA | DRB1 *1101
HLA DRB1 *1101, sequence (P01903 26-254 limits assumed, other chains not shown): as the sequence (P01903 26-254 limits assumed, other chains not shown) above
Protocol: as §9
Head of the field: IC50nM to purified HLA | DRB1 *1101
as §10
Where the first naming reader finds the target: head: IC50nM to purified HLA | DRB1 *1101

[11] = biological target: HLA DRB1 *1501 (Homo sapiens, UniProt P01903+P01911); assay: IC50nM to purified HLA | DRB1 *1501
Protocol: as §9
(§13) Head of the field: IC50nM to purified HLA | DRB1 *1501
as §10
(§14) Where the first naming reader finds the target: head: IC50nM to purified HLA | DRB1 *1501

[12] = biological target: HLA DRB4 *0101 (Homo sapiens, UniProt P01903+P13762, G164S); assay: IC50nM to purified HLA | DRB4 *0101
HLA DRB4 *0101, sequence (P01903 26-254 limits assumed): as the sequence (P01903 26-254 limits assumed, other chains not shown) above
HLA DRB4 *0101, sequence (P13762 whole entry G164S): as the sequence (P13762 whole entry G164S) above
Protocol: as §9, §7, §10, §8

[13] = biological target: HLA DRB1 *0405 (Homo sapiens, UniProt P01903+P01911, A100R/A169T/D86S/F76Y/I96L/K127E/L162R/M171V/N62H/P40V/Q125Y/R42H/S133A/S149N/S66Y/V115G/V209L/W38E); assay: IC50nM to purified HLA | DRB1 *0405
Protocol: as §9
(§15) Head of the field: IC50nM to purified HLA | DRB1 *0405
as §10
(§16) Where the first naming reader finds the target: head: IC50nM to purified HLA | DRB1 *0405

[14] = biological target: purified HLA DRB1 *0301 (Homo sapiens, UniProt P01903+P01911, A100K/A102G/A103R/A169T/F55Y/I96L/K41T/L162R/M171V/P40S/Q125H/Q178H/Q39Y/R42S/S66N/T106N/T262R/W38E/Y61H); assay: IC50nM to purified HLA | DRB1 *0301
purified HLA DRB1 *0301, sequence (P01903 26-254 limits assumed, other chains not shown): as the sequence (P01903 26-254 limits assumed, other chains not shown) above
Protocol: as §1
(§17) Head of the field: IC50nM to purified HLA | DRB1 *0301
as §3
(§18) Where the first naming reader finds the target: head: IC50nM to purified HLA | DRB1 *0301

[15] = biological target: purified HLA DRB1 *0401 (Homo sapiens, UniProt P01903+P01911, A100K/A169T/F76Y/I96L/K127E/L162R/M171V/N62H/P40V/Q125Y/R42H/S133A/S149N/S66Y/V115G/V209L/W38E); assay: IC50nM to purified HLA | DRB1 *0401
Protocol: as §1
Head of the field: IC50nM to purified HLA | DRB1 *0401
as §3
Where the first naming reader finds the target: head: IC50nM to purified HLA | DRB1 *0401

[16] = biological target: purified HLA DRB1 *0404 (Homo sapiens, UniProt P01903+P01911, A100R/A169T/F76Y/I96L/K127E/L162R/M171V/N62H/P40V/Q125Y/R42H/S133A/S149N/S66Y/V209L/W38E); assay: IC50nM to purified HLA | DRB1 *0404
Protocol: as §1, §11, §3, §12

[17] = biological target: purified HLA DRB1 *1501 (Homo sapiens, UniProt P01903+P01911); assay: IC50nM to purified HLA | DRB1 *1501
Protocol: as §1, §13, §3, §14

[18] = biological target: purified HLA DRB5 *0101 (Homo sapiens, UniProt P01903+Q30154); assay: IC50nM to purified HLA | DRB5 *0101
Protocol: as §1
Head of the field: IC50nM to purified HLA | DRB5 *0101
as §3
Where the first naming reader finds the target: head: IC50nM to purified HLA | DRB5 *0101

[19] = biological target: HLA DRB1 *0301 (Homo sapiens, UniProt P01903+P01911, A100K/A102G/A103R/A169T/F55Y/I96L/K41T/L162R/M171V/P40S/Q125H/Q178H/Q39Y/R42S/S66N/T106N/T262R/W38E/Y61H); assay: IC50nM to purified HLA | DRB1 *0301
HLA DRB1 *0301, sequence (P01903 26-254 limits assumed, other chains not shown): as above
Protocol: as §9, §17, §10, §18

[20] = biological target: purified HLA DRB1 *0405 (Homo sapiens, UniProt P01903+P01911, A100R/A169T/D86S/F76Y/I96L/K127E/L162R/M171V/N62H/P40V/Q125Y/R42H/S133A/S149N/S66Y/V115G/V209L/W38E); assay: IC50nM to purified HLA | DRB1 *0405
Protocol: as §1, §15, §3, §16

| Sequence | IC50 [1] | IC50 [2] | IC50 [3] | IC50 [4] | IC50 [5] | IC50 [6] | IC50 [7] | IC50 [8] | IC50 [9] | IC50 [10] | IC50 [11] | IC50 [12] | IC50 [13] | IC50 [14] | IC50 [15] | IC50 [16] | IC50 [17] | IC50 [18] | IC50 [19] | IC50 [20] |
| --- | --- | --- | --- | --- | --- | --- | --- | --- | --- | --- | --- | --- | --- | --- | --- | --- | --- | --- | --- | --- |
| AAAHFVAAWTLHAAA [SEQ ID NO: 26] | 4.2 nM | 53 nM | 9.3 nM | 1190 nM | 267 nM |  |  |  |  |  |  |  |  |  |  |  |  |  |  |  |
| AAAEFVAANTLHAAA [SEQ ID NO: 49] |  |  |  |  |  | 9 nM | 6.9 nM | 37 nM | 87 nM | 70 nM | 137 nM | 878 nM | 44 nM |  |  |  |  |  |  |  |
| AAAYFVAANTLHAAA [SEQ ID NO: 24] | 4.5 nM | 49 nM |  | 54 nM | 703 nM |  |  |  |  |  |  |  |  | 130 nM | 3.3 nM | 5.2 nM | 53 nM |  |  |  |
| AAAWFVAAFTLHAAA [SEQ ID NO: 9] | 5.3 nM | 69 nM |  |  | 115 nM |  |  |  |  |  |  |  |  | 139 nM | 3.1 nM |  | 38 nM | 30 nM |  |  |
| AAANFVAAWTLHAAA [SEQ ID NO: 51] |  |  |  |  |  | 4.5 nM |  | 13 nM |  | 11 nM | 10 nM | 253 nM | 7.6 nM |  |  |  |  |  | 147 nM |  |
| AAAHFVAAYTLHAAA [SEQ ID NO: 27] | 3.8 nM | 94 nM | 11 nM | 1320 nM | 526 nM |  |  |  |  |  |  |  |  | 214 nM | 3.4 nM | 5.7 nM | 4.2 nM | 30 nM |  |  |
| AAAFFVAAYTLHAAA [SEQ ID NO: 13] | 4.4 nM | 54 nM | 7.4 nM |  | 805 nM |  |  |  |  |  |  |  |  | 151 nM | 1.7 nM | 2.3 nM | 4.8 nM | 11 nM |  | 19 nM |
| AAAFFVAAWTLHAAA [SEQ ID NO: 12] | 3.6 nM | 60 nM | 7.8 nM |  | 440 nM |  |  |  |  |  |  |  |  | 129 nM | 2.2 nM | 2.9 nM | 25 nM |  |  |  |
| AAAYFVAAWTLHAAA [SEQ ID NO: 21] | 3.7 nM | 55 nM | 9.7 nM |  | 279 nM |  |  |  |  |  |  |  |  | 119 nM |  |  |  |  |  | 6.9 nM |
